One test concerns the target T1, TrkA (Homo sapiens, UniProt P04629).
T1 construct: purchased MBL International (CycLex) CY-1091
The experiment in a line: TrkA inhibitory activity, CycLex TrkA kinase assay/inhibitor screening kit. It is filed as biochemical. Conditions: for inhibition at 1 µM: compound 1 μM, read-out: % inhibition rate (based on 1 μM). On the procedure:
The TrkA inhibitory activity of the compounds was evaluated using CycLex® TrkA kinase assay/inhibitor screening kit of MBL International (Cat No. CY-1091). The test was carried out according to the analysis method provided by the manufacturer. The test method is as follows.
1. 1× wash buffer was prepared by diluting 10× wash buffer in ddH2O.
2. 20×ATP solution (1.25 mM) was prepared by adding 1.6 mL of distilled water to the tube containing ATP dissolved in NA2 salt and freeze-dried.
4. A working solution mixture and a solution of the appropriate concentration of the example compound to evaluate the activity of the example compound were prepared and dispensed into a 96-well plate as shown in table below.
5. After dispensing the solutions into a 96-well plate, the plate was incubated at 30° C. for 30 minutes.
6. After incubation of the plate at 30° C. for 30 minutes, 200 μL of 1× wash buffer was added into each well of the plate, followed by washing. This process was repeated 5 times.
7. After washing the plate, 100 μL of HRP conjugated detection antibody (PX-39) was added into each well of the plate, followed by reaction at room temperature for 60 minutes.
8. Upon completion of the reaction, 200 μL of 1× wash buffer was added into each well of the plate, followed by washing. This process was repeated 5 times.
9. After washing the plate, 100 μL of substrate reagent containing chromogenic substrate and tetra-methylbenzidine (TMB) was added into each well of the plate, followed by incubation at room temperature for 5-15 minutes.
10. Upon completion of the reaction, 100 μL of stop solution (1 N H2SO4) was added into each well of the plate, followed by measuring OD450 within 30 minutes.

For a further test, the target named is T2, TrkC (Homo sapiens, UniProt Q16288).
T2 construct: host or cells: U2OS
Kind of test: PathHunter eXpress TrkC functional assay kit (U2OS cells, agonist NT-3). Conditions: for inhibition at 1 µM: compound 1 μM, read-out: TrkC % inhibition rate (based on 1 μM). It is filed as cell-based. Here is the method:
(§1) The inhibitory activity of the example compounds against TrkB and TrkC was evaluated using PathHunter® eXpress TrkB or TrkC functional assay kit (Product Code: 93-0463E3 and 93-0464E3) of DiscoverX. The test was carried out according to the analysis method provided by the manufacturer. The test was carried out as follows over 2 or 3 days depending on the conditions of cells.
(§2) 1. Before starting the experiment, the cell plating (CP) reagent stored at −80° C. was dissolved in a 37° C. water bath.
(§3) 2. When the CP reagent was dissolved, cell vials for TrkB or TrkC were prepared to be dissolved.
(§4) 3. Two U2OS cell vials (TrkB kit & TrkC kit) stored in liquid nitrogen were thawed.
(§5) 4. 500 μL of CP reagent was added to the thawed cell vial, and the cells were sufficiently mixed by pipetting and transferred to a Conical tube in which 11.5 mL of CP reagent was dispensed.
(§6) 5. 12 mL cells (1×10^6 cells in CP reagent) were seeded on a 96-well tissue culture treated plate (100 μL/well), followed by culture in a 37° C., 5% CO2 humidified incubator for 24 hours or 48 hours.
(§7) Day 2 or Day 3: Treatment of Test Material
(§8) 1. Test material, agonist and antagonist were prepared as stock solutions according to the experiment design. • Test material: 10 mM Stock solution in DMSO • Antagonist (GNF-5837): 10 mM Stock solution in 1.8674 mL DMSO • Agonist: TrkB agonist→BDNF, TrkC agonist→NT-3
(§9) 2. 10 mM stock solutions of teat material and antagonist having the concentration of 22 times more concentrated than the final screening concentration were prepared according to the experiment design.
(§10) 3. Each well of the 96-well culture plate containing cells was treated with 5 μL of the solutions of teat material and antagonist having the concentration of 22 times more concentrated than the final screening concentration (#2), followed by incubation at 37° C. for 60 minutes.
(§11) 4. During the incubation, 10 μg/mL stock solution of each agonist for TrkB and TrkC was prepared using a reconstitution buffer for the purpose of the experiment, and each well of the plate was treated with 5 μL of the prepared solution, followed by incubation at 19-25° C. for 3 hours.
(§12) 5. During the incubation, a detection reagent working solution (4.75 ml Cell assay buffer, 1.25 ml Substrate Reagent 1, 0.25 ml Substrate Reagent 2) was prepared. Upon completion of the incubation, 55 μL of the working solution was added into each well of the plate.
(§13) 7. The plate was incubated at room temperature for 60 minutes in a dark place, and the […] was measured with a luminescence plate reader.

The target in another test is T3, TrkB (Homo sapiens, UniProt Q16620).
T3 construct: host or cells: U2OS
Kind of test: PathHunter eXpress TrkB functional assay kit (U2OS cells, agonist BDNF). It is filed as cell-based. The conditions noted are these: for inhibition at 1 µM: compound 1 μM, read-out: TrkB % inhibition rate (based on 1 μM). Here is the method:
as §1, §2, §3, §4, §5, §6, §7, §8, §9, §10, §11, §12, §13

In test [1] the test system is postoperative pain animal model. The experiment in a line: Pharmacological activity in postoperative pain model (von-Frey mechanical allodynia, 50% withdrawal threshold). It is filed as in vivo, Sprague-Dawley male rats. The conditions noted are these: oral, rat postoperative pain model, 2 days after surgery; for ED50: 48 h, read-out: ED50. Here is the method: Sprague-Dawley male rats weighing around 150 g (Orient bio., Korea) were used. Rats were raised in an environment where a 12-hour light-dark cycle was maintained, 4 per transparent plastic cage covered with scob as bedding. Food and water were provided freely. To verify the analgesic effect of the example compounds, all rats were anesthetized with O2 delivered from the induction chamber at a ratio of 3:3 of isoflurane and operated. Anesthetized rats were placed on a 37° C. warm plate to prevent hypothermia during the operation. The ipsilateral sole (left) of the hind paw of the experimental animal was disinfected with 10% povidone-iodine solution, and incised to a length of 1 cm with a #11 surgical knife. The incision was made starting from 0.5 cm of the proximal edge of the heel through the skin and fascia on the side of the ipsilateral sole toward the toe. After the incision, a gentle pressure was applied to the incision site to stop the bleeding and the skin was sutured. The surgical site was sterilized with 10% povidone-iodine solution, and gentamicin (8 mg/kg) was administered intraperitoneally to prevent infection. The analgesic effect of the compound on postoperative pain was evaluated in the experimental animals 2 days after the surgery. […] The formula for calculating the 50% withdrawal threshold (g) is as follows. 50% Withdrawal threshold (g)=(10^(x+kd))/10^4 [Mathematical Formula 1] • x=the value of the last tested filament (log unit value). • k=the value indicating positive/negative reaction by up-down method. • d=the value fixed at 0.224 as the average difference between stimuli.

T2 sequence (Q16288 32-839): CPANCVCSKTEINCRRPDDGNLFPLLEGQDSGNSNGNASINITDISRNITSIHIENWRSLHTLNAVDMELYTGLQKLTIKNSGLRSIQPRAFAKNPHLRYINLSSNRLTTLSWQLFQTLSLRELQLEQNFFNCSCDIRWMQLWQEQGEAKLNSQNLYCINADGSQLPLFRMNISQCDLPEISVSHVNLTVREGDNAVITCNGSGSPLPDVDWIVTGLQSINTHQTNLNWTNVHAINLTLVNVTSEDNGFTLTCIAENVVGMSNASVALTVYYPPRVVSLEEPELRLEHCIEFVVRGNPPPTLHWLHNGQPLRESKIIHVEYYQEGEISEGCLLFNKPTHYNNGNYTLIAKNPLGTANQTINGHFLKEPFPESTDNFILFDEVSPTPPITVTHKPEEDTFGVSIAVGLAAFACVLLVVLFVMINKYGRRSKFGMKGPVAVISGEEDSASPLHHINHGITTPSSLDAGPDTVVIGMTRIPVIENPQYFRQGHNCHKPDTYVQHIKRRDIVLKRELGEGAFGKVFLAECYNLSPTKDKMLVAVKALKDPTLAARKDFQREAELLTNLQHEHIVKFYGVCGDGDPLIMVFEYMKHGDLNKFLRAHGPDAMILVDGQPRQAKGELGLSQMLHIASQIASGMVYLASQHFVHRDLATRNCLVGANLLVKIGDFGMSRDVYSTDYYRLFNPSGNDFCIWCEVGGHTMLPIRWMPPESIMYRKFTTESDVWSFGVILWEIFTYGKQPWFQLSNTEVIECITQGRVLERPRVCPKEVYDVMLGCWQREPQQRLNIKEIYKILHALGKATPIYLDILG
T1 sequence (P04629 33-796): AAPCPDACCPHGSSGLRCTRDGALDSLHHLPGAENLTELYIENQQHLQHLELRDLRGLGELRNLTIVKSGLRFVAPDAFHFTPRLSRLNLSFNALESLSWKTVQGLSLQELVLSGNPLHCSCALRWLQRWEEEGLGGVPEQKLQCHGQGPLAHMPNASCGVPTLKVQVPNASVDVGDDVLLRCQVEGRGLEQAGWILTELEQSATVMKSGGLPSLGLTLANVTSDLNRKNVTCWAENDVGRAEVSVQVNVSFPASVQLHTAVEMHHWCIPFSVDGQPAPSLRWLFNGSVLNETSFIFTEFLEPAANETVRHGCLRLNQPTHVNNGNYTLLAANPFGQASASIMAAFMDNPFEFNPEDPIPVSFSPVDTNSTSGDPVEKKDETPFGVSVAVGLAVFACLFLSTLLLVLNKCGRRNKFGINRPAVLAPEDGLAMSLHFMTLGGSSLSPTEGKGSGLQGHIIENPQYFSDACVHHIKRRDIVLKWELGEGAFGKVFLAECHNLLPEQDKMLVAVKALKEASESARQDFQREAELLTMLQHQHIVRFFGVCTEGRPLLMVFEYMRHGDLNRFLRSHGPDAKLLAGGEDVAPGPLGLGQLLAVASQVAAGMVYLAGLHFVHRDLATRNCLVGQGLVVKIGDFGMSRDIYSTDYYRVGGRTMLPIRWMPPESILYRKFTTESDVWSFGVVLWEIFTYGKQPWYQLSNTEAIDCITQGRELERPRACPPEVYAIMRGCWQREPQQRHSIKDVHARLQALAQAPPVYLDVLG
T3 sequence (Q16620 32-822): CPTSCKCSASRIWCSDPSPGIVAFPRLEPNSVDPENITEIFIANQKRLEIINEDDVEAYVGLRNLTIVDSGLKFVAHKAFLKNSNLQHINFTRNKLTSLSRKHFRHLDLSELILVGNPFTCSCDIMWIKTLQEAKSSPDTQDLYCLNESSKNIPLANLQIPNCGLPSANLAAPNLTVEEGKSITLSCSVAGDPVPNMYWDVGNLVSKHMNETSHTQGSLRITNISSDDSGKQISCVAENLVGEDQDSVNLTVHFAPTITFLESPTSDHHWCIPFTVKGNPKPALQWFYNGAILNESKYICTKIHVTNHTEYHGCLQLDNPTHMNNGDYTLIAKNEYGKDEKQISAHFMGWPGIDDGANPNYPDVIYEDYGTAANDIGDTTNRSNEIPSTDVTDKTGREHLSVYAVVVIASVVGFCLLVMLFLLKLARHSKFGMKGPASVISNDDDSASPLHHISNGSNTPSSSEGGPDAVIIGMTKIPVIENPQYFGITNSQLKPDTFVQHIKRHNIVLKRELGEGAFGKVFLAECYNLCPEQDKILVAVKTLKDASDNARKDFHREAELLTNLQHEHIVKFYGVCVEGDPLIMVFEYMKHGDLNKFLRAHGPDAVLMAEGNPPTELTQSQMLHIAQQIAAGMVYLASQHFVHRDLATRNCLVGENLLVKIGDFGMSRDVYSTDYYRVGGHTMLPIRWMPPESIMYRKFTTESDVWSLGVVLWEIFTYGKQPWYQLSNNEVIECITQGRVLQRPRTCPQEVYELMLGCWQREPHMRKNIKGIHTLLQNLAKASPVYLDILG

The term IC50 denotes the concentration that inhibits the measured activity by half. Read a high IC50 as lower potency. What is called inhibition is the relative decrease from the control value, in per cent. The ED50 is the dose at which the effect has come halfway, by size or by number of responders. As for `CN1CCN(c2ccc(C(=O)Nc3n[nH]c4ncc(-c5ccncc5)cc34)cc2)CC1` [Example 13, 4-(4-methylpiperazine-1-yl)-N-(5-(pyridine-4-yl)-1H-pyrazolo[3,4-b]pyridine-3-yl)benzamide], on TrkA, the IC50 is 179 nM and the inhibition at 1 µM amounted to 99%. Further, the inhibition at 1 µM on TrkC was 0%. Also, the inhibition at 1 µM on TrkB is -1%. Besides, in test [1], the median effective dose (ED50) was determined as 11.5 mg/kg and the “Maximum duration of drug efficacy” value amounted to 1.0 h.

As for `CN1CCN(c2ccc(C(=O)Nc3n[nH]c4ncc(-c5ccccc5)cc34)cc2)CC1` [Example 10, 4-(4-methylpiperazine-1-yl)-N-(5-phenyl-1H-pyrazolo[3,4-b]pyridine-3-yl)benzamide], on TrkA, the IC50 was 213 nM and the inhibition at 1 µM turned out to be 98%. On TrkC, the IC50 was determined as 1070 nM and the inhibition at 1 µM came to 49%. For the same molecule, the inhibition at 1 µM on TrkB was 27%. In test [1], the median effective dose (ED50) came to 3.8 mg/kg and the “Maximum duration of drug efficacy” value came out at 0.5 h.

For `Oc1c(Cl)cc(-c2c[nH]c3ncnc(-c4cnn(C5CCNCC5)c4)c23)cc1Cl` [Example 15, 2,6-dichloro-4-(4-(1-(piperidine-4-yl)-1H-pyrazole-4-yl)-7H-pyrrolo[2,3-d]pyrimidine-5-yl)phenol], the inhibition at 1 µM at TrkA was 95%; at TrkC, -16%; on TrkB, 4%. In test [1], the 50% effective dose (ED50) is 20.1 mg/kg. Besides, the “Maximum duration of drug efficacy” value in test [1] was determined as 0.5 h.

For `Oc1c(Cl)cc(-c2c[nH]c3ncnc(NC4CCC(O)CC4)c23)cc1Cl` (centres unmarked) [Example 23, 2,6-dichloro-4-(4-((1s,4s)-4-hydroxycyclohexylamino)-7H-pyrrolo[2,3-d]pyrimidine-5-yl)phenol], the IC50 at TrkA stood at 57.9 nM; at TrkB, 894 nM. The figures for the inhibition at 1 µM on TrkA, on TrkC and on TrkB were 100%, 15% and 56%, respectively.

Turning to `CN1CCN(c2ccc(C(=O)Nc3n[nH]c4ncc(Br)cc34)cc2)CC1` [Example 14, N-(5-bromo-1H-pyrazolo[3,4-b]pyridine-3-yl)-4-(4-methylpiperazine-1-yl)benzamide], at TrkA, the IC50 turned out to be 122 nM. The inhibition at 1 µM at TrkA was 101%; at TrkC, -20%; on TrkB, -8%. In addition, the ED50 in test [1] stood at 3.8 mg/kg. Also, in test [1], the “Maximum duration of drug efficacy” value was 0.5 h.

The values above are taken from patent publication US12195467B2, “Compound having TrkA inhibitory activity and pharmaceutical composition, for preventing or alleviating pain, containing same as active ingredient” (JBKLAB CO., LTD., priority 2018, dated 2025).
